Consider one compound from patent publication US9839701B2, “Aromatic amino acid derivative and positron emission topography (PET) probe using the same” (OSAKA UNIVERSITY, priority 2013, dated 2017).

Data set [1] addresses T1, human LAT1 (Homo sapiens, UniProt Q01650).
T1 construct: expressed in transfected cells
Put plainly: Inhibition of amino acid uptake in human LAT1 stably expressing cell line. It counts as cell-based. From the text: A human LAT1 expression vector or a human LAT2 expression vector was transfected using Lipofectamine (registered trademark) 2000 (Invitrogen) into a human embryonic kidney cell line HEK293. G418-resistant HEK293 clones were selected, and among them, a clone showing human LAT1-specific amino acid uptake and a clone showing human LAT2-specific amino acid uptake were selected and established as a human LAT1 stably expressing cell line and a human LAT2 stably expressing cell line, respectively (Khunweeraphong et al. J Pharmacol Sci. 2012 Aug. 18; 119(4): 368-80. Epub 2012 Jul. 31).
The human LAT1 stably expressing cell line and the human LAT2 stably expressing cell line were seeded at 1.2×10^5 cells/well on separate collagen-coated 24-well plates, and after 48 hours, the cells were washed 3 times with an uptake buffer (Na^2+-free Hank's balanced salt solution (HBSS), pH 7.4) prewarmed at 37° C. Compound 10a, compound 10b or a positive control FAMT (fluoro-α-methyltyrosine) was added at 100 μM, and incubation was performed at 37° C. for 3 minutes. Cells not treated with any of these compounds were used as a negative control. After the incubation, 1 μM of [^14C]L-leucine or [^14C]alanine was added to the wells, [^14C]L-leucine or [^14C]alanine uptake was allowed to proceed for 1 minute, and the cells were washed 3 times with an ice-cold uptake buffer. Subsequently, 500 μL of 0.1 M NaOH was added to each well for cell lysis, 20 μL of the lysate was used for the measurement of the protein concentration, and the remaining lysate was used for the measurement of the intracellular radioactivity. The measured radioactivity was normalized to the protein concentration, and on the assumption that the amino acid uptake activity in the negative control was 100%, the percentage (%) of inhibition of amino acid uptake in the presence of each compound was calculated.
Using the same cell lines as described in Example 2, the compound of Example 1 was examined for the inhibitory effect on leucine or alanine uptake in the human LAT1 stably expressing cell line and the human LAT2 stably expressing cell line in the same manner as in Example 2. FAMT was used as the positive control. The compound of Example 1 or FAMT was added at 100 μM. Cells not treated with either of these compounds were used as a negative control. On the assumption that the amino acid uptake activity in the negative control (control) was 100%, the percentage (%) of inhibition of amino acid uptake in the presence of FAMT or the compound of Example 1 was calculated. In addition, the cancer cell selectivity was calculated as the ratio of the amino acid uptake activity in the human LAT2 stably expressing cell line relative to that in the human LAT1 stably expressing cell line.
In another experiment, the cells were treated with the compound of Example 1 at eight different concentrations (0.1, 1, 3, 10, 30, 100, 300 and 1000 μM), and the concentration causing 50% inhibition of amino acid uptake was calculated as the IC50 value.
A human LAT1 stably expressing cell line and a human LAT2 stably expressing cell line, each of which was the same as described in Example 2, were seeded at 1.2×10^5 cells/well, and after 48 hours, the cells were washed 3 times with an uptake buffer (Na^2+-free Hank's balanced salt solution (HBSS), pH 7.4) prewarmed at 37° C. The test compounds, L-tyrosine or the positive control FAMT (fluoro-α-methyltyrosine) was added at 30 μM, and incubation was performed at 37° C. for 3 minutes. Cells not treated with any of these compounds were used as a negative control. After the incubation, 1 μM of [^14C]L-leucine or [^14C]alanine was added to the wells, [^14C]L-leucine or [^14C]alanine uptake was allowed to proceed for 1 minute, and the cells were washed 3 times with an ice-cold uptake buffer. […]

Data set [2] deals with T1, human LAT1. As to the kind of experiment: Promoting effect on amino acid efflux from human LAT1 stably expressing cell line. It counts as cell-based. The protocol: In the same manner as in Example 3, the human LAT1 stably expressing cell line and the human LAT2 stably expressing cell line were seeded on separate collagen-coated 24-well plates, and after 48 hours, the cells were washed with an uptake buffer prewarmed at 37° C. An uptake buffer supplemented with 1 μM of [^14C]L-leucine or [^14C]L-alanine was added to each well, and [^14C]L-leucine or [^14C]L-alanine uptake by the cells was allowed to proceed at 37° C. for 10 minutes. […] The radioactivity in each supernatant was measured as the radioactivity of the amino acid released from the cells. Subsequently, 500 μL of 0.1 M NaOH was added to each well for cell lysis, 20 μL of the lysate was used for the measurement of the protein concentration, and the remaining lysate was used for the measurement of the residual radioactivity in the cells. The sum of the residual radioactivity and the released radioactivity in each experiment was checked to confirm that there was no great difference in the total radioactivity incorporated into the cells at the preloading among the experiments. […]
Based on the measured values of amino acid efflux at the indicated concentrations of each compound, the Km value for amino acid efflux from the human LAT1 stably expressing cell line and the Km value for amino acid efflux from the human LAT2 stably expressing cell line were calculated and shown in Table 5. […]

Data set [3] relates to tumor derived from human pancreatic carcinoma cell line MIAPaCa-2. Put plainly: Accumulation in subcutaneous tumor of nude mouse, HPLC detection after PITC labeling. The note with it: 100 nmol via tail vein, tumor excised 1 hour after administration, FIG. 3. It counts as in vivo. The protocol: A tumor derived from subcutaneously implanted MIAPaCa-2 cells in a nude mouse was excised, and 0.1 g of the tumor was subcutaneously transplanted into a 6-week-old female nude mouse (BALB/cAJc1-nu). One month after the transplantation, the compound of Example 1 was dissolved in physiological saline at a concentration of 1 mM, and 0.1 mL (100 nmol) of the solution or 0.1 mL of physiological saline was administered from the tail vein. One hour after the administration, the tumor was excised, the amino acids in the tumor tissue were labeled with phenylisothiocyanate (PITC), and the labeled compound was detected by HPLC for evaluation of the accumulation.

T1 sequence (Q01650 whole entry): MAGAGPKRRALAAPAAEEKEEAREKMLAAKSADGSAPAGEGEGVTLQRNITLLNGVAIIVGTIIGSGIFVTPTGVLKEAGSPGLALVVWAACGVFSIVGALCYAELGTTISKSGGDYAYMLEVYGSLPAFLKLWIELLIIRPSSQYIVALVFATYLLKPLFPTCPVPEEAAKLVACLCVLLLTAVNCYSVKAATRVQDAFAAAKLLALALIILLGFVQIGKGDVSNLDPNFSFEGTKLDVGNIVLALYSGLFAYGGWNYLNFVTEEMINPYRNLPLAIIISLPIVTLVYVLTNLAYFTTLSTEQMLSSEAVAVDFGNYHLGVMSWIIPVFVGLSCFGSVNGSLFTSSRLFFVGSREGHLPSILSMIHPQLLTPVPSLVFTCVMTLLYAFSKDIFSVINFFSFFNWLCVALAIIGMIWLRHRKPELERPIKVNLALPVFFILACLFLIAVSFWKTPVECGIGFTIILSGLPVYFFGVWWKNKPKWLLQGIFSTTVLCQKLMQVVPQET
T1 sequence (P08195 102-630 partner): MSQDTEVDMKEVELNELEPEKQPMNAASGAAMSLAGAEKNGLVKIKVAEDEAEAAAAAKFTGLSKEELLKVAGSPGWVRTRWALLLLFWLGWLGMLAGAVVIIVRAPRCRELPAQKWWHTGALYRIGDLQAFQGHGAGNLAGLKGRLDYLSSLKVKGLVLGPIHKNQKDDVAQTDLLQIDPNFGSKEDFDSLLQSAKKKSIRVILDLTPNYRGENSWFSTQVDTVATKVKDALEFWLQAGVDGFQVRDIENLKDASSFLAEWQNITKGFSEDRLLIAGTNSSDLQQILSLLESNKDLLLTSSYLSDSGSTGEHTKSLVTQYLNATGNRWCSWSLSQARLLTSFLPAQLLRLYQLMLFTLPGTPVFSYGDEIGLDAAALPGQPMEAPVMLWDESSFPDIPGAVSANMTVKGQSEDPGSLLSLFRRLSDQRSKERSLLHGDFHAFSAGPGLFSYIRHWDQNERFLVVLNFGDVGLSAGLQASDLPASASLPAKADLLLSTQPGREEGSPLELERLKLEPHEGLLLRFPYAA

Usually inhibition stands for the percentage by which the read-out fell short of the control. For orientation: IC50 means the midpoint of a concentration-inhibition curve. With `NC(Cc1cc(OCCF)ccc1I)C(=O)O` (stereo not drawn) [Example 1, 2-amino-3-(5-(2-fluoroethoxy)-2-iodophenyl)propanoic acid], the inhibition at 100 µM in data set [1] (HEK293, compound at 100 μM, human LAT1 stably expressing HEK293 cell line, 1 μM [14C]L-leucine or [14C]alanine, 1 min uptake, read-out: Percentage of inhibition of LAT1-mediated amino acid uptake) came to 92.5%. The same compound gave an IC50 in data set [1] (eight concentrations 0.1-1000 μM) of 9.2 µM. The “Selectivity for LAT1 over LAT2” value in data set [1] (from IC50 values) is given as at least 9 times. In data set [2] (10 μM, 1 min, FIG. 2), the “Promoting effect on amino acid efflux via human LAT1, compared with FAMT” value is listed as “twice or more higher than that of FAMT”. Also, in data set [2] (from Km values), the “Affinity for human LAT1 relative to FAMT” value is at least 10 times. For the same compound, the Accumulation in tumor result in data set [3] is “accumulated intensively in the tumor”.
